Some test systems named below: MCF7; OVCAR-5; SF-268; HCC 2998; COLO 205; MDA-N; CCRF-CEM; NCI/ADR-RES; CAKI-1; MDA-MB-435; SK-MEL-5; PC-3; MDA-MB-231; OVCAR-8; EKVX; A549; OVCAR-4; SR; NCI-H522.
Holding throughout (experiment): growth of human tumour cells (NCI), 48 h

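Test compounds were applied to cells in 96-well plates for 48 hours at 5 doses. GI50 is the concentration that inhibits growth by half.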 Activity calls are given as the source filed them. Cut-off read from the data, not from the text of the source: active = GI50 up to about 1.1 µM and inactive = higher.

Turning to `O=C(O)CCn1cnc2c(S)ncnc21`, the GI50 in the assay with MCF7, in the assay on OVCAR-5, in the assay with SF-268, in the assay on HCC 2998, with COLO 205 and in the assay with MDA-N was > 100 µM (inactive) in each case. Besides, the GI50 with CCRF-CEM, in the assay with NCI/ADR-RES, in the assay on CAKI-1, with MDA-MB-435, in the assay on SK-MEL-5 and with PC-3 was > 100 µM (inactive) in each case. Moreover, the GI50 in the assay on MDA-MB-231, in the assay on OVCAR-8, in the assay on EKVX, in the assay on A549, in the assay on OVCAR-4 and in the assay on SR was > 100 µM (inactive) in each case. For the same compound, the GI50 in the assay with NCI-H522 was > 100 µM (inactive).

On to `O=C1c2c(O)ccc(O)c2C(=O)c2c(NCCNC(=O)C(O)C(O)C(O)C(O)CO)ccc(NCCNC(=O)C(O)C(O)C(O)C(O)CO)c21` (stereo unspecified), for which the GI50 in the assay on MCF7 was < 0.01 µM (active); in the assay with OVCAR-5 it was 0.192 µM (active); with SF-268 it was 0.0241 µM (active); in the assay with HCC 2998, 0.135 µM (active); with COLO 205 it was < 0.01 µM (active); in the assay on MDA-N it was < 0.0494 µM (active). For the same compound, the GI50 was 0.0316 µM (active) in the assay with CCRF-CEM; 0.133 µM (active) in the assay with NCI/ADR-RES; < 0.01 µM (active) in the assay on CAKI-1; 0.355 µM (active) in the assay with MDA-MB-435; 0.016 µM (active) in the assay with SK-MEL-5; 0.131 µM (active) with PC-3. Moreover, the GI50 in the assay on MDA-MB-231 was 0.0467 µM (active); in the assay on OVCAR-8, < 0.0231 µM (active); in the assay with EKVX it was 0.165 µM (active); in the assay with A549, < 0.01 µM (active); in the assay on OVCAR-4, 0.18 µM (active); with SR, < 0.01 µM (active). The GI50 in the assay with NCI-H522 is < 0.02 µM (active).

With `N#Cc1nn(C2OC(COC(=O)c3ccccc3)C(OC(=O)c3ccccc3)C2OC(=O)c2ccccc2)c2nc[nH]c(=O)c12` (stereo unspecified), the GI50 with MCF7 is 93.5 µM (inactive); in the assay with OVCAR-5, > 100 µM (inactive); in the assay on SF-268 it was 43.1 µM (inactive); with HCC 2998 it was 78.2 µM (inactive); in the assay with COLO 205, 27.4 µM (inactive); in the assay with MDA-N it was 49.2 µM (inactive). Further, the GI50 in the assay on CCRF-CEM is 18.5 µM (inactive); in the assay with NCI/ADR-RES, 66.4 µM (inactive); with CAKI-1, 38.5 µM (inactive); with MDA-MB-435, 46.2 µM (inactive); in the assay on SK-MEL-5 it was 25.6 µM (inactive); in the assay on PC-3, 45.4 µM (inactive). Moreover, the GI50 was 58.3 µM (inactive) in the assay with MDA-MB-231; 27.8 µM (inactive) in the assay with OVCAR-8; 55.7 µM (inactive) in the assay on EKVX; 39.6 µM (inactive) in the assay on A549; 38.3 µM (inactive) with OVCAR-4; 30.9 µM (inactive) with SR. Besides, the GI50 in the assay with NCI-H522 was 36.9 µM (inactive).

With `CC(C)(C)OC(=O)CN1CCN(CC(=O)N2CCN(C(=O)OCc3ccccc3)CC2)CCN(CC(=O)OC(C)(C)C)CCN(CC(=O)N2CCN(C(=O)OCc3ccccc3)CC2)CC1`, the GI50 was 2.35 µM (inactive) in the assay with MCF7; 13.1 µM (inactive) with OVCAR-5; 2.48 µM (inactive) in the assay with SF-268; 1.69 µM (inactive) in the assay on HCC 2998; 1.15 µM (inactive) in the assay on COLO 205; 2.18 µM (inactive) in the assay on MDA-N. The GI50 in the assay with CCRF-CEM was 1.41 µM (inactive); in the assay with NCI/ADR-RES it was 14.3 µM (inactive); in the assay with CAKI-1, 10.1 µM (inactive); in the assay on MDA-MB-435, 2.13 µM (inactive); in the assay with SK-MEL-5, 1.71 µM (inactive); with PC-3 it was 2.51 µM (inactive). Besides, the GI50 is 1.64 µM (inactive) with MDA-MB-231; 2.83 µM (inactive) with OVCAR-8; 10.5 µM (inactive) in the assay with EKVX; 3.27 µM (inactive) in the assay with A549; 2.73 µM (inactive) in the assay on OVCAR-4; 0.407 µM (active) in the assay with SR. The GI50 with NCI-H522 was 0.785 µM (active).

The record behind these values is ChEMBL document CHEMBL1201862, “PubChem BioAssay data set” (2004).
